Measurements from PubChem BioAssay (NCI).
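Growth conditions: 96-well plates. Treatment: test compound, 48 hours, 5 concentrations. Analysis: linear interpolation between bracketing concentrations; unreached endpoints set to highest concentration. The concentration for 50% growth inhibition is given as GI50. TGI: total growth inhibition.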

Legend:
Assay in all cases: inhibition of tumour cell growth, NCI panel, 48 h
ACHN renal = system: ACHN renal
EKVX NSCLC = system: EKVX NSCLC
IGROV1 ovarian = system: IGROV1 ovarian
MALME-3M melanoma = system: MALME-3M melanoma
MDA-MB-435 = system: MDA-MB-435
MDA-N = system: MDA-N
OVCAR-5 ovarian = system: OVCAR-5 ovarian
OVCAR-8 ovarian = system: OVCAR-8 ovarian
RPMI-8226 leukemia = system: RPMI-8226 leukemia
RXF 393 renal = system: RXF 393 renal
SK-MEL-28 melanoma = system: SK-MEL-28 melanoma
SK-OV-3 ovarian = system: SK-OV-3 ovarian
TK-10 renal = system: TK-10 renal
DU-145 prostate = system: DU-145 prostate
HL-60(TB) leukemia = system: HL-60(TB) leukemia
HS 578T breast = system: HS 578T breast
SR leukemia = system: SR leukemia

Compound	TGI (ACHN renal)	TGI (EKVX NSCLC)	TGI (IGROV1 ovarian)	TGI (MALME-3M melanoma)	TGI (MDA-MB-435)	TGI (MDA-N)	TGI (OVCAR-5 ovarian)	TGI (OVCAR-8 ovarian)	TGI (RPMI-8226 leukemia)	TGI (RXF 393 renal)	TGI (SK-MEL-28 melanoma)	TGI (SK-OV-3 ovarian)	TGI (TK-10 renal)	TGI (DU-145 prostate)	TGI (HL-60(TB) leukemia)	TGI (HS 578T breast)	TGI (SR leukemia)	GI50 (IGROV1 ovarian)	GI50 (RPMI-8226 leukemia)
Cc1ccc(-c2c(C#N)c(-c3ccccc3)n(NS(=O)(=O)c3ccc(C)cc3)c(=O)c2C#N)cc1	> 100 µM	> 100 µM	> 100 µM	> 100 µM	> 100 µM	> 100 µM	> 100 µM	> 100 µM	31.6 µM	> 100 µM	> 100 µM	> 100 µM	> 100 µM	–	–	–	–	–	–
NCc1ccc(-c2ccc(CN)s2)s1	> 100 µM	> 100 µM	76.3 µM	> 100 µM	> 100 µM	> 100 µM	> 100 µM	> 100 µM	> 100 µM	> 100 µM	> 100 µM	> 100 µM	68.7 µM	> 100 µM	> 100 µM	–	–	–	–
CC(=O)C(C(=O)c1ccc(C)cc1)[C@@H]1OC(C)(C)O[C@@H]1[C@H]1COC(C)(C)O1 (stereo partly specified)	32.5 µM	> 100 µM	> 74.8 µM	34 µM	> 59.8 µM	54.3 µM	> 100 µM	> 50.7 µM	12.5 µM	36.4 µM	> 77.7 µM	> 100 µM	> 100 µM	29.8 µM	25.1 µM	> 59.8 µM	–	–	–
Cc1cccc(N/C(=C(/C(Cl)=C(Cl)Cl)[N+](=O)[O-])n2nnc3ccccc32)c1	63.1 µM	39.6 µM	–	28.1 µM	38.8 µM	64.9 µM	38 µM	31.1 µM	> 100 µM	–	28.1 µM	49.9 µM	–	–	–	21.8 µM	–	–	–
COc1ccc(CC2Cc3ccccc3CCN2)cc1OC (stereo unspecified)	–	> 50 µM	> 50 µM	> 50 µM	> 50 µM	> 50 µM	> 50 µM	> 50 µM	> 50 µM	> 50 µM	> 50 µM	> 50 µM	–	> 50 µM	> 50 µM	> 50 µM	–	–	–
CC[C@@]1(O)C(=O)OCc2c1cc1n(c2=O)Cc2c-1nc1ccccc1c2/C=N\NC(=O)C[n+]1ccccc1	1.27 µM	> 100 µM	> 100 µM	> 100 µM	> 100 µM	> 100 µM	> 65.7 µM	> 68.7 µM	> 100 µM	2.79 µM	> 100 µM	> 100 µM	> 100 µM	14.3 µM	> 34.4 µM	> 100 µM	–	–	–
O=C1Cc2c([nH]c3ccc(Br)cc23)-c2cc(Br)ccc2N1	> 100 µM	> 100 µM	–	–	> 100 µM	–	> 100 µM	> 100 µM	> 100 µM	–	> 100 µM	> 100 µM	> 100 µM	> 100 µM	–	–	–	–	–
COc1ccc(NC(=S)Nc2cc(C)ccn2)cc1	> 100 µM	> 100 µM	> 100 µM	–	> 100 µM	–	–	> 100 µM	> 100 µM	> 100 µM	> 100 µM	–	> 100 µM	> 100 µM	> 100 µM	> 100 µM	> 100 µM	–	–
O=S(=O)(O)CCSSCCS(=O)(=O)O	> 1000 µM	> 1000 µM	> 1000 µM	> 1000 µM	> 1000 µM	> 1000 µM	> 1000 µM	> 1000 µM	> 1000 µM	> 1000 µM	> 1000 µM	> 1000 µM	> 1000 µM	> 1000 µM	> 1000 µM	–	> 1000 µM	–	–
O=C1C2=Cc3ccccc3CCN2c2ccccc21	> 31.6 µM	> 94.5 µM	> 100 µM	> 76.7 µM	> 56.3 µM	–	> 100 µM	> 100 µM	23.3 µM	–	> 82.3 µM	–	> 100 µM	> 100 µM	72.4 µM	> 100 µM	29.5 µM	–	–
C=CC(C)(C)n1cc(C2=C3OC(=O)C(c4cn(C(C)(C)C=C)c5ccccc45)=C3OC2=O)c2ccccc21	> 100 µM	> 100 µM	> 100 µM	> 100 µM	> 100 µM	> 100 µM	> 100 µM	> 100 µM	> 100 µM	> 100 µM	> 100 µM	–	> 100 µM	> 100 µM	> 100 µM	–	> 100 µM	–	–
CCOC(=O)/C(C#N)=C/Nc1c(C)n(C)n(-c2ccccc2)c1=O	> 100 µM	> 100 µM	> 100 µM	> 100 µM	> 100 µM	> 100 µM	> 100 µM	> 100 µM	> 100 µM	> 100 µM	–	> 100 µM	> 100 µM	> 100 µM	> 100 µM	–	> 100 µM	–	–
O=[N+]([O-])/C(C(Cl)=C(Cl)Cl)=C1\Nc2ccc([N+](=O)[O-])cc2N1	> 100 µM	> 100 µM	–	> 100 µM	> 100 µM	> 100 µM	> 100 µM	–	> 100 µM	–	> 100 µM	> 100 µM	> 100 µM	> 100 µM	–	–	–	–	–
O=C(CP(=O)(c1ccccc1)c1ccccc1)c1cccc(C(=O)CP(=O)(c2ccccc2)c2ccccc2)c1	> 100 µM	> 100 µM	> 100 µM	–	> 100 µM	–	> 100 µM	> 100 µM	> 100 µM	52.7 µM	> 100 µM	56.1 µM	> 100 µM	> 100 µM	> 100 µM	57.9 µM	> 100 µM	–	–
COC(=O)C1=CC2C(=O)c3ccccc3C1(c1ccccc1)N2C1CCCCC1 (stereo unspecified)	> 100 µM	> 100 µM	> 100 µM	73.1 µM	43.4 µM	> 100 µM	> 100 µM	> 100 µM	–	24.6 µM	41.4 µM	> 100 µM	> 100 µM	> 100 µM	> 100 µM	–	–	–	–
OC1=C2c3ccccc3NC2Oc2cc(F)ccc21 (stereo unspecified)	46.7 µM	22.4 µM	> 100 µM	48.5 µM	33.9 µM	31.4 µM	38.2 µM	> 100 µM	–	38.3 µM	> 100 µM	26.6 µM	47.1 µM	37.5 µM	–	> 100 µM	–	–	–
CN(C)CCn1c(=O)c2ccc(NCCNCCO)c3c(=O)c4ccccc4n(c1=O)c23	15.9 µM	2.41 µM	1.87 µM	3.41 µM	2.07 µM	1.78 µM	5.19 µM	5.64 µM	–	–	> 19.7 µM	16.2 µM	6.95 µM	0.628 µM	0.0197 µM	1.37 µM	–	–	–
O=C1c2ccccc2C(=O)C2NC(CCCCCSSCCCCCC3=NC4C(=O)c5ccccc5C(=O)C4N3)=NC12 (stereo unspecified)	> 100 µM	> 100 µM	> 100 µM	–	> 100 µM	–	> 100 µM	> 100 µM	> 100 µM	> 100 µM	> 100 µM	> 100 µM	> 100 µM	> 100 µM	> 100 µM	> 100 µM	> 100 µM	–	–
Cc1ccc(S(=O)(=O)NC(=O)NCc2ccc(S(N)(=O)=O)cc2)cc1	> 100 µM	> 100 µM	> 100 µM	> 100 µM	> 100 µM	–	> 100 µM	–	> 100 µM	> 100 µM	> 100 µM	> 100 µM	> 100 µM	> 100 µM	> 100 µM	> 100 µM	> 100 µM	–	–
Cc1cc(S(=O)(=O)Nc2nc(N)nc(N3N=CCC3C)n2)c(SCC(=O)O)cc1Cl (stereo unspecified)	> 10 µM	> 10 µM	> 10 µM	> 10 µM	> 10 µM	> 10 µM	> 10 µM	> 10 µM	> 10 µM	> 10 µM	> 10 µM	> 10 µM	> 10 µM	> 10 µM	> 10 µM	> 10 µM	–	–	–
O=C(/C=C/c1cccc([N+](=O)[O-])c1)N1CCN(CCOC(c2ccccc2)c2ccccc2)CC1	> 100 µM	> 100 µM	> 100 µM	> 100 µM	> 100 µM	> 100 µM	> 100 µM	> 100 µM	27.8 µM	> 100 µM	64.2 µM	> 100 µM	47.7 µM	> 100 µM	–	–	32.9 µM	–	–
O=C1CC(Br)c2c(Br)sc(Br)c21 (stereo unspecified)	31.6 µM	39 µM	33.5 µM	38.3 µM	39.1 µM	28.8 µM	31.9 µM	29.6 µM	28 µM	32.9 µM	> 100 µM	55.9 µM	32.4 µM	45.7 µM	39.3 µM	> 100 µM	–	–	–
CCCCNC(=S)Nc1nc(C(=O)NNC(=S)NCC)cs1	> 100 µM	> 100 µM	> 100 µM	> 100 µM	> 100 µM	> 100 µM	> 100 µM	> 100 µM	> 100 µM	–	–	> 100 µM	> 100 µM	> 100 µM	–	–	> 100 µM	–	–
[O-][n+]1nc(N2CCOCC2)nc2ccccc21	> 100 µM	> 100 µM	> 100 µM	> 100 µM	> 100 µM	> 100 µM	> 100 µM	> 100 µM	> 100 µM	> 100 µM	> 100 µM	> 100 µM	> 100 µM	> 100 µM	> 100 µM	> 100 µM	–	–	–
N=C1C(=N)c2ccccc2-c2ccccc21.[Cl-].[Ru+2].c1cnc2c(c1)ccc1cccnc12.c1cnc2c(c1)ccc1cccnc12	76.6 µM	93.5 µM	72.6 µM	73.6 µM	–	–	> 100 µM	95.6 µM	–	> 100 µM	60.7 µM	> 100 µM	> 100 µM	–	54 µM	–	> 100 µM	–	–
O=C(O)c1cccc(Nc2c(C(=O)O)cccc2[N+](=O)[O-])c1	> 100 µM	> 100 µM	> 100 µM	> 100 µM	–	> 100 µM	> 100 µM	> 100 µM	> 100 µM	–	–	> 100 µM	> 100 µM	> 100 µM	> 100 µM	> 100 µM	> 100 µM	–	–
COc1cc2c(cc1C)NC(=O)/C2=C/c1cccnc1	> 56.8 µM	47 µM	> 100 µM	> 52.9 µM	86.1 µM	–	27.9 µM	> 58.7 µM	79.1 µM	25 µM	> 100 µM	34.3 µM	31.1 µM	27.3 µM	26.2 µM	97.2 µM	–	19.5 µM	12.7 µM
CN(CCC(=O)N1CC(CCl)c2ccc([N+](=O)[O-])cc21)CCC(=O)N1CC(CCl)c2ccc([N+](=O)[O-])cc21 (stereo unspecified)	2.91 µM	42.7 µM	–	23.7 µM	27.5 µM	30.9 µM	> 100 µM	37.6 µM	13.9 µM	–	28.9 µM	> 100 µM	32 µM	> 100 µM	–	17.7 µM	–	–	–
CC(=O)OCC(OC(C)=O)C1C[C@H]2O[C@@H]3[C@H](C[C@H]2O1)O[C@@]1(C[C@@H]3C)C[C@H](C)[C@@H]2O[C@]3(C[C@@H]2O1)C[C@H]1O[C@H]2[C@H](C)[C@H]4OC(=O)C[C@H]5CC[C@@H]6OC7[C@H]8O[C@]9(CC[C@H]%10CC(=O)[C@H](CC[C@H]%11C[C@@H](C)C(=O)C(C[C@@H]4O[C@H]2C[C@H]1O3)O%11)O%10)CC8O[C@@H]7[C@@H](O9)[C@H]6O5 (stereo partly specified)	> 1 µM	> 1 µM	> 1 µM	–	0.0171 µM	–	–	> 0.258 µM	–	> 1 µM	> 1 µM	> 0.22 µM	> 1 µM	> 1 µM	> 1 µM	0.00604 µM	> 1 µM	–	–
O=C1c2c(Br)sc(Br)c2C(NC(=O)C(F)(F)F)C1O (stereo unspecified)	84.2 µM	39.5 µM	42.3 µM	43.7 µM	54.3 µM	40.4 µM	39.6 µM	44.1 µM	–	27.5 µM	43.7 µM	36.4 µM	> 100 µM	39.4 µM	> 100 µM	> 100 µM	–	–	–
